Read-outs that look alike come from different tables or passages of the source.
How the values were obtained:
Format in all cases: cell-based
CXCR4 receptor = biological target: T1, CXCR4 receptor (Homo sapiens, UniProt P61073); assay: Functional FLIPR assay (block of SDF-1 alpha induced [Ca2+]i change); conditions: HEK-293 cells with human CXCR4 BacMam and Gqi5 BacMam; antagonism of SDF-1 alpha; read-out: Functional assay (pIC50) (converted)
T1 construct: expressed in transfected cells; host or cells: HEK-293 cells (stably expressing human macrophage scavenging receptor) transduced with human CXCR4 BacMam and Gqi5 BacMam
Method: Human embryonic kidney (HEK-293) cells were maintained and harvested as described above. Cells were plated in 96-well, black clear bottom, poly-lysine coated plates at a concentration of 40,000 cells per well in a final volume of 100 ul containing human CXCR4 BacMam (MOI=25) and Gqi5 BacMam (MOI=12.5). The cells were incubated at 37° C., 5% CO2, 95% humidity for 24 h to allow for protein expression.
After the required incubation time the cells were washed once with 50 ul of fresh serum-free DMEM/F12 media containing probenicid. 50 ul of dye solution was then added to the cells (Calcium Plus Assay Kit Dye; Molecular Devices) was dissolved in 200 ml of the above probenicid/BSA containing media and incubated for 1 h. Cell plates were transferred to a Fluorometric Imaging Plate Reader (FLIPR). Upon addition the effect of the compounds on the change in [Ca^2+]i was examined to determine if the compounds were agonists or antagonists (ability to block SDF-1 alpha activity) at the CXCR4 receptor. IC50 values are determined and pKb values are calculated using the Leff and Dougall equation: KB=IC50/((2+([agonist]/EC50̂b)̂1/b -1) Where IC50 is that defined by the antagonist concentration-response curve [agonist] is the EC80 concentration of agonist used EC50 is that defined by the agonist concentration-response curve b is the slope of the agonist concentration-response curve.

[1] = Compound cytotoxicity in the absence of virus (CellTiter-Glo); conditions: human; non-infected HOS cultures, cell viability; read-out: Cytotox (pIC50) (converted)
Method: (§1) Compounds were profiled against two HIV-1 viruses, the M-tropic (CCR5 utilizing) Ba-L strain and the T-tropic (CXCR4 utilizing) IIIB strain. Both viruses were propagated in human peripheral blood lymphocytes. Compounds were tested for there ability to block infection of the HOS cell line (expressing hCXCR4/hCCR5/hCD4/pHIV-LTR-luciferase) by either HIV-1 Ba-L or HIV-1 IIIB. Compound cytotoxicity was also examined in the absence of virus addition.
(§2) HOS cells (expressing hCXCR4/hCCR5/hCD4/pHIV-LTR-luciferase) were harvested and diluted in Dulbeccos modified Eagles media supplemented with 2% FCS and non-essential amino acid to a concentration of 60,000 cells/ml. The cells were plated into 96-well plates (100 ul per well) and the plates were placed in a tissue culture incubator (37° C.; 5% CO2/95% air) for a period of 24 h.
(§3) Subsequently, 50 ul of the desired drug solution (4 times the final concentration) was added to each well and the plates were returned to the tissue culture incubator (37° C.; 5% CO2/95% air) for 1 h. Following this incubation 50 ul of diluted virus was added to each well (approximately 2 million RLU per well of virus). The plates were returned to the tissue culture incubator (37° C.; 5% CO2/95% air) and were incubated for a further 96 h.
(§4) Following this incubation the endpoint for the virally infected cultures was quantified following addition of Steady-Glo Luciferase assay system reagent (Promega, Madison, Wis.). Cell viability or non-infected cultures was measured using a CellTiter-Glo luminescent cell viability assay system (Promega, Madison, Wis.). All luminescent readouts are performed on a Topcount luminescence detector (Packard, Meridien, Conn.).

[2] = test system: HIV-1 IIIB strain, T-tropic (CXCR4 utilizing); assay: HOS HIV-1 infectivity assay
Method: as §1, §2, §3, §4

[3] = test system: HIV-1 gp160 (HXB2 strain) mediated fusion with HOS (hCXCR4/hCCR5/hCD4/pHIV-LTR-luciferase) cells; assay: Cell/cell fusion assay (HEK-293 expressing HIV-1 tat, rev, gp160 with HOS hCXCR4/hCCR5/hCD4/pHIV-LTR-luciferase cells); conditions: Homo sapiens, HEK293; luciferase readout after 24 h; read-out: Fusion assay (pIC50) (converted)
Text: The complete coding sequences of HIV-1 tat (GenBank Accession No. X07861) and rev (GenBank Accession No. M34378) were cloned into pcDNA3.1 expression vectors containing G418 and hygromycin resistance genes, respectively. The complete coding sequence of the HIV-1 (HXB2 strain) gp160 envelope gene (nucleotide bases 6225-8795 of GenBank Accession No. K03455) was cloned into plasmid pCRII-TOPO. The three HIV genes were additionally inserted into the baculovirus shuttle vector, pFastBacMam1, under the transcriptional control of the CMV promoter. A construction of the pHIV-I LTR containing mutated NFkB sequences linked to the luciferase reporter gene was prepared by digesting pcDNA3.1, containing the G418 resistance gene, with Nru I and Bam HI to remove the CMV promoter. LTR-luc was then cloned into the Nru I/Bam HI sites of the plasmid vector. Plasmid preparations were performed after the plasmids were amplified in Escherichia coli strain DH5-alpha. The fidelity of the inserted sequences was confirmed by double-strand nucleotide sequencing using an ABI Prism Model 377 automated sequencer.
Recombinant BacMam baculoviruses were constructed from pFastBacMam shuttle plasmids by using the bacterial cell-based Bac-to-Bac system. Viruses were propagated in Sf9 (Spodoptera frugiperda) cells cultured in Hink's TNM-FH Insect media supplemented with 10% (v/v) fetal bovine serum and 0.1% (v/v) pluronic F-68 according to established protocols.
Human osteosarcoma (HOS) cells that naturally express human CXCR4 were transfected with human CCR5, human CD4 and the pHIV-LTR-luciferase plasmid using FuGENE 6 transfection reagent. Single cells were isolated and grown under selection condition in order to generate a stable HOS (hCXCR4/hCCR5/hCD4/pHIV-LTR-luciferase) clonal cell line. The cells were maintained in Dulbeccos modified Eagles media supplemented with 10% fetal calf serum (FCS), G418 (400 ug/ml), puromycin (1 ug/ml), mycophenolic acid (40 ug/ml), xanthine (250 ug/ml) and hypoxanthine (13.5 ug/ml) to maintain a selection pressure for cells expressing the LTR-luciferase, hCCR5 and hCD4, respectively. Human embryonic kidney (HEK-293) cells stably transfected to express the human macrophage scavenging receptor (Class A, type 1; GenBank Accession No. D90187), were maintained in DMEM/F-12 media (1:1) supplemented with 10% FCS and 1.5 ug/ml puromycin. The expression of this receptor by the HEK-293 cells enhances their ability to stick to tissue culture treated plasticware.
HEK-293 cells were harvested using enzyme-free cell dissociation buffer. The cells were resuspended in DMEM/F-12 media supplemented with 10% FCS and 1.5 ug/ml and counted. Tranductions were performed by direct addition of BacMam baculovirus containing insect cell media to cells. The cells were simultaneously transduced with BacMam baculovirus expressing HIV-1 tat, HIV-1 rev and HIV-1 gp160 (from the HXB2 HIV strain). Routinely an MOI of 10 of each virus was added to the media containing the cells. 2 mM butyric acid was also added to the cells at this stage to increase protein expression in transduced cells. The cells were subsequently mixed and seeded into a flask at 30 million cells per T225. The cells were incubated at 37° C., 5% CO2, 95% humidity for 24 h to allow for protein expression.
HEK and HOS cells were harvested in DMEM/F-12 media containing 2% FCS and DMEM media containing 2% FCS, respectively, with no selection agents added. Compounds were plated as 1 ul spots in 100% DMSO on a 96-well CulturPlate plates. HOS cells (50 ul) were added first to the wells, followed immediately by the HEK cells (50 ul). The final concentration of each cell type was 20,000 cells per well. Following these additions, the cells were returned to a tissue culture incubator (37° C.; 5% CO2/95% air) for an additional 24 h.
Following the 24 h incubation, total cellular luciferase activity was measured using the LucLite Plus assay kit (Packard, Meridien, Conn.). […]

[4] = Human immunodeficiency virus 1, IIIB, HOS HIV anti-infectivity assay, strain not named in Table 2, read-out: Activity Level
[5] = Human immunodeficiency virus 1, HOS cells, HIV-1 IIIB, 96 h, luciferase, read-out: HOS (3B)

T1 sequence (P61073 whole entry): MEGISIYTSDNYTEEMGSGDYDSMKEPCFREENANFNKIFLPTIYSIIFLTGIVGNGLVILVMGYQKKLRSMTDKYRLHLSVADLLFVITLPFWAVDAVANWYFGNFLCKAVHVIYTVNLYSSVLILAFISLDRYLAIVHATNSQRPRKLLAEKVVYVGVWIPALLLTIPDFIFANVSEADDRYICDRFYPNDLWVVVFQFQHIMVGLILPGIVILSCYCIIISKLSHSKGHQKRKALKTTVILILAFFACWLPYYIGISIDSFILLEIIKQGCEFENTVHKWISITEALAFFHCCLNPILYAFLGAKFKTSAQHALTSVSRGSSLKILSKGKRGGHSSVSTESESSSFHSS

| SMILES | IC50 (CXCR4 receptor) [nM] | IC50 at 96 h [1] [nM] | IC50 [2, 4] [µM] | IC50 [2, 5] [µM] | IC50 [3] [nM] | IC50 ([2]; Human immunodeficiency virus 1, IIIB, HOS, 96 h, read-out: HOS (3B) (μM)) [µM] | IC50 ([2]; Human immunodeficiency virus 1, IIIB, read-out: Activity Level) [µM] |
| --- | --- | --- | --- | --- | --- | --- | --- |
| Cc1c(Br)ccc2nc(CN(CCCCN)C3CCCc4cccnc43)cn12 (stereo not drawn) [Example 18, N-[(6-Bromo-5-methylimidazo[1,2-a]pyridin-2-yl)methyl]-N-(5,6,7,8-tetrahydro-8-quinolinyl)-1,4-butanediamine] | 30.9 | > 100000 | < 0.1 | 0.088 | 155 | – | – |
| Cc1cccc2nc(CN(CCCCN)C3CCCc4cccnc43)cn12 (stereo not drawn) [Example 5, N-[(5-Methylimidazo[1,2-a]pyridin-2-yl)methyl]-N-(5,6,7,8-tetrahydro-8-quinolinyl)-1,4-butanediamine] | 12 | > 100000 | < 0.1 | 0.017 | 39.8 | – | – |
| NCCCCN(Cc1cn2c(F)cccc2n1)C1CCCc2cccnc21 (stereo not drawn) [Example 14, N-[(5-Fluoroimidazo[1,2-a]pyridin-2-yl)methyl]-N-(5,6,7,8-tetrahydro-8-quinolinyl)-1,4-butanediamine] | 100 | > 100000 | < 0.1 | 0.091 | 407 | – | – |
| NCCCCN(Cc1cn2c(N3CCOCC3)cccc2n1)C1CCCc2cccnc21 (stereo not drawn) [Example 23, N-{[5-(4-Morpholinyl)imidazo[1,2-a]pyridin-2-yl]methyl}-N-(5,6,7,8-tetrahydro-8-quinolinyl)-1,4-butanediamine] | 158 | > 100000 | < 0.1 | 0.077 | 324 | – | – |
| Cc1cc(Br)c2nc(CN(CCCCN)C3CCCc4cccnc43)cn2c1 (stereo not drawn) [Example 20, N-[(8-Bromo-6-methylimidazo[1,2-a]pyridin-2-yl)methyl]-N-(5,6,7,8-tetrahydro-8-quinolinyl)-1,4-butanediamine] | 135 | > 100000 | 0.1 to 0.5 | 0.31 | 2290 | – | – |
| NCCCCN(Cc1cn2cc(Cl)cc(Cl)c2n1)C1CCCc2cccnc21 (stereo not drawn) [Example 16, N-[(6,8-Dichloroimidazo[1,2-a]pyridin-2-yl)methyl]-N-(5,6,7,8-tetrahydro-8-quinolinyl)-1,4-butanediamine] | 49 | > 100000 | 0.1 to 0.5 | 0.133 | 1290 | – | – |
| NCCCCN(Cc1cn2c(N)cccc2n1)C1CCCc2cccnc21 (stereo not drawn) [Example 26, N-[(5-Aminoimidazo[1,2-a]pyridin-2-yl)methyl]-N-(5,6,7,8-tetrahydro-8-quinolinyl)-1,4-butanediamine] | 11.5 | > 100000 | < 0.1 | 0.014 | 39.8 | – | – |
| CN1CCN(c2cccc3nc(CN(CCCCN)C4CCCc5cccnc54)cn23)CC1 (stereo not drawn) [Example 24, N-{[5-(4-Methyl-1-piperazinyl)imidazo[1,2-a]pyridin-2-yl]methyl}-N-(5,6,7,8-tetrahydro-8-quinolinyl)-1,4-butanediamine] | 41.7 | > 100000 | < 0.1 | 0.0036 | 4.9 | – | – |
| NCCCCN(Cc1cn2cc(F)ccc2n1)C1CCCc2cccnc21 (stereo not drawn) [Example 11, N-[(6-Fluoroimidazo[1,2-a]pyridin-2-yl)methyl]-N-(5,6,7,8-tetrahydro-8-quinolinyl)-1,4-butanediamine] | 17 | > 100000 | < 0.1 | 0.033 | 63.1 | – | – |
| NCCCCN(Cc1cn2c(Cl)cccc2n1)C1CCCc2cccnc21 (stereo not drawn) [Example 13, N-[(5-Chloroimidazo[1,2-a]pyridin-2-yl)methyl]-N-(5,6,7,8-tetrahydro-8-quinolinyl)-1,4-butanediamine] | 40.7 | > 100000 | < 0.1 | 0.025 | 91.2 | – | – |
| Cc1ccn2cc(CN(CCCCN)C3CCCc4cccnc43)nc2c1 (stereo not drawn) [Example 3, N-[(7-Methylimidazo[1,2-a]pyridin-2-yl)methyl]-N-(5,6,7,8-tetrahydro-8-quinolinyl)-1,4-butanediamine] | 759 | > 100000 | 0.1 to 0.5 | 0.223 | 813 | – | – |
| NCCCCN(Cc1cn2cc(C(F)(F)F)cc(Cl)c2n1)C1CCCc2cccnc21 (stereo not drawn) [Example 17, N-{[8-Chloro-6-(trifluoromethyl)imidazo[1,2-a]pyridin-2-yl]methyl}-N-(5,6,7,8-tetrahydro-8-quinolinyl)-1,4-butanediamine] | 347 | > 100000 | – | – | 3890 | 0.3 | 0.1 to 0.5 |
